We go through 3 compounds from ChEMBL document CHEMBL5291721, “A preclinical secondary pharmacology resource illuminates target-adverse drug reaction associations of marketed drugs” (Nat Commun, 2023).

Experiment [1] concerns the target T1, Prostaglandin G/H synthase 1 (Rattus norvegicus, UniProt Q63921).
T1 sequence (Q63921 whole entry): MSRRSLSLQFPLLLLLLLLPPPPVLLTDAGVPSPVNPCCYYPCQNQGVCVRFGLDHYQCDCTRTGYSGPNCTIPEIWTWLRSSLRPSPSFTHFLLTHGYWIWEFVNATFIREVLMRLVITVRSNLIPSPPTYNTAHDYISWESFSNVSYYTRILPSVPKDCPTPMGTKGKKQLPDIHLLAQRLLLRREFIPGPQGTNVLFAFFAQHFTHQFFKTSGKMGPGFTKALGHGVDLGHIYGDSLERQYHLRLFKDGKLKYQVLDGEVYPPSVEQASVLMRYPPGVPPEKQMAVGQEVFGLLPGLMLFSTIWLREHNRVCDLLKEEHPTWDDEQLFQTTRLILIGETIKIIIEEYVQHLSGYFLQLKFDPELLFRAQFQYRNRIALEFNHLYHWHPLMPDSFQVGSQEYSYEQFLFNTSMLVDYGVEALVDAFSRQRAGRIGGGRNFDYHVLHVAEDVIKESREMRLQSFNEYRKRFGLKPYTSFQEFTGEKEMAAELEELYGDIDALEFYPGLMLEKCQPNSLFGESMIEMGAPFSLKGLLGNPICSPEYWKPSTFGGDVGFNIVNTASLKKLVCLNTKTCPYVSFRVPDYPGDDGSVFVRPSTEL
The experiment is classed as functional.

The target in experiment [2] is T2, Alpha-1A adrenergic receptor (Homo sapiens, UniProt P35348).
T2 sequence (P35348 whole entry): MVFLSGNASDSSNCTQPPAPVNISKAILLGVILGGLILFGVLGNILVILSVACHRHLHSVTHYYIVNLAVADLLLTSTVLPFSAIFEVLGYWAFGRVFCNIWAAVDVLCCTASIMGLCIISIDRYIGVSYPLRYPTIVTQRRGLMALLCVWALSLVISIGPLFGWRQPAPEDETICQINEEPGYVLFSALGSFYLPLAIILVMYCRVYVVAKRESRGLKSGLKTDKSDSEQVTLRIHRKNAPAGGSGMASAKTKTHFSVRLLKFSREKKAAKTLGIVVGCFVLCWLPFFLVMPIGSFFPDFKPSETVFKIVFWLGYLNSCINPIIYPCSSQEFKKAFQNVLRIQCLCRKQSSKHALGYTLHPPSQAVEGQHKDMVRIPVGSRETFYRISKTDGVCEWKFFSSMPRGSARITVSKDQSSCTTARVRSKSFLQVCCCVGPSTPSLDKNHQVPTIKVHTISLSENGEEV
The format is functional, cell-based.

The target in experiment [3] is T3, Nuclear receptor subfamily 1 group I member 3 (Homo sapiens, UniProt Q14994).
T3 sequence (Q14994 whole entry): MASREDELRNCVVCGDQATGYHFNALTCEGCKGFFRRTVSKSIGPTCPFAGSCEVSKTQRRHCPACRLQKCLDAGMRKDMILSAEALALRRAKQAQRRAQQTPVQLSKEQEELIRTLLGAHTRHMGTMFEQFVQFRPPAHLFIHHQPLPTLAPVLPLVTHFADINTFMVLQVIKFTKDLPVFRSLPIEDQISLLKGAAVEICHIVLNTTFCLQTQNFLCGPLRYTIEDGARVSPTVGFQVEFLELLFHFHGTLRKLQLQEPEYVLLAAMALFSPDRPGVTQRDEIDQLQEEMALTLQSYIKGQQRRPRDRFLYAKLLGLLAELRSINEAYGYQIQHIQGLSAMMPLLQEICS
The experiment is classed as functional.

Experiment [4] has as its target T4, Retinoic acid receptor beta (Homo sapiens, UniProt P10826).
T4 sequence (P10826 whole entry): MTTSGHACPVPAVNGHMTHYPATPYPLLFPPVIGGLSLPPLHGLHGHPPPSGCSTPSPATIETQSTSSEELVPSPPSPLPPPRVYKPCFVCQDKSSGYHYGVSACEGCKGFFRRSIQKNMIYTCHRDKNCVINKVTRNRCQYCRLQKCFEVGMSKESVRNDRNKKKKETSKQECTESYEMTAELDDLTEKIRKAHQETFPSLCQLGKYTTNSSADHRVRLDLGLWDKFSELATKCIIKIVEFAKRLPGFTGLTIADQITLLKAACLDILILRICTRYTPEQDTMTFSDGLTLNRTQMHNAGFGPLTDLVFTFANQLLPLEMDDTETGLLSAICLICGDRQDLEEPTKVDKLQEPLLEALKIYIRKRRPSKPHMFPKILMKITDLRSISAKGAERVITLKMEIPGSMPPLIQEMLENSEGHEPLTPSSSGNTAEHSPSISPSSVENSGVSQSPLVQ
The format is functional, cell-based.

Experiment [5] has as its target T5, Oxysterols receptor LXR-beta (Homo sapiens, UniProt P55055).
T5 sequence (P55055 whole entry): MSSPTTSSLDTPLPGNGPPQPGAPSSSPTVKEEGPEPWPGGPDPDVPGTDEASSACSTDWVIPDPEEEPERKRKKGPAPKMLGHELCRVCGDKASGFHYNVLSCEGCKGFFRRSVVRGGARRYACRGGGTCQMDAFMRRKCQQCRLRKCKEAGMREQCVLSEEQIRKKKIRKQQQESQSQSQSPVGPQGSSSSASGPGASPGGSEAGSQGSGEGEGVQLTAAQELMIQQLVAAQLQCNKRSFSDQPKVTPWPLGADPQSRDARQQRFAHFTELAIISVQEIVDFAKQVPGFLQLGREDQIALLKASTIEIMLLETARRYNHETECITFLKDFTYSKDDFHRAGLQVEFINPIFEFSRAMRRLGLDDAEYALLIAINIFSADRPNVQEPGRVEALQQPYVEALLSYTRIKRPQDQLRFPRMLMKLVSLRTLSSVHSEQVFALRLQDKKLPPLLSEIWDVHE
The experiment is classed as functional.

The target in experiment [6] is T6, Oxysterols receptor LXR-alpha (Homo sapiens, UniProt Q13133).
T6 sequence (Q13133 whole entry): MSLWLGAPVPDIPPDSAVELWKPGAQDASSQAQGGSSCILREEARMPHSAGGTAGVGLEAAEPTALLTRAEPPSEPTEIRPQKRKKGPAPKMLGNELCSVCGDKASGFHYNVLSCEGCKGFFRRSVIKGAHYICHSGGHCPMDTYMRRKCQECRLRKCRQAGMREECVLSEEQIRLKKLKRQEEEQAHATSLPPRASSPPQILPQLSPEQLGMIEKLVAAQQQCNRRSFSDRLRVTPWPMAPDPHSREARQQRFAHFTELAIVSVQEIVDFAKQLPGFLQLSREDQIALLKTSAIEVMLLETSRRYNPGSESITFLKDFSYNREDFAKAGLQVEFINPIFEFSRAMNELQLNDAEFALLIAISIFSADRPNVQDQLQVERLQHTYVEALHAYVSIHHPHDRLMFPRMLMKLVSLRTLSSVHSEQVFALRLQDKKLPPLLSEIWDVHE
The experiment is classed as functional.
Note: assay procedure not described here.

By AC50 is commonly meant the midpoint of the concentration-response curve, whichever way the signal moves. `COc1ccc(C(Cl)=C(c2ccc(OC)cc2)c2ccc(OC)cc2)cc1` [CHLOROTRIANISENE]: the AC50 in experiment [1] amounted to 0.0782 µM.

The compound `N=C(N)NC(=O)Cc1c(Cl)cccc1Cl` [GUANFACINE] showed an AC50 in experiment [2] of 0.0093 µM.

On to `CC(=O)N1CCN(c2ccc(OCC3COC(Cn4ccnc4)(c4ccc(Cl)cc4Cl)O3)cc2)CC1` (stereo unspecified) [KETOCONAZOLE], for which the AC50 was 5 µM in experiment [3], 3.3 µM in experiment [4], above 30 µM in experiment [5] and above 10 µM in experiment [6].
